US20260327191A1, “GSK3a INHIBITORS AND METHODS OF USE THEREOF” (Blueprint Medicines Corporation, priority 2023, published 2026)

Columns and labels:
GSK3B [1] = target: T1, GSK3B (Homo sapiens, UniProt P49841); test: In vitro enzymatic activity assay, GSK3β; format: biochemical; design: Full length human GSK3α or GSK3B expressed as N-terminal GST fusion proteins; GST (N); purchased Carna Biosciences (Japan); host or cells: baculovirus host; conditions: 1.0 mM ATP, 1.0 μM peptide substrate, 120 min, 25° C, read-out: Enzyme GSK3β (IC50)
T1 sequence (P49841 whole entry, the tested form may be a part): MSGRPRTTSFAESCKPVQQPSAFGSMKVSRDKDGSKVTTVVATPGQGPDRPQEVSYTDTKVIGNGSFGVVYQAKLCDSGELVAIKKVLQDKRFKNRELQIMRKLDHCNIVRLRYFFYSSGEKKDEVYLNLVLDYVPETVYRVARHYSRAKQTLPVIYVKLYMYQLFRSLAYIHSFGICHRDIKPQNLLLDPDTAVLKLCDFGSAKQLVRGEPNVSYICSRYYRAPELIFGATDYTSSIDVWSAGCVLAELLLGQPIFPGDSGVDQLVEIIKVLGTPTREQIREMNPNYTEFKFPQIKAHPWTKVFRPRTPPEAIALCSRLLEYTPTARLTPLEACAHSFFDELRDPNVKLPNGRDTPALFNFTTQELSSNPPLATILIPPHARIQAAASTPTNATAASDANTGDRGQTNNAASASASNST

GSK3B [2] = target: T1, GSK3B; test: NanoBRET cellular target engagement assay, Nanoluc-GSK3B in HEK293 cells; format: cell-based; design: expressed in transfected cells; conditions: NanoBRET GSK3β IC50, HEK293 cells, tracer K-8, 2 hours, 37° C
GSK3A = target: T2, GSK3A (Homo sapiens, UniProt P49840); test: NanoBRET cellular target engagement assay, Nanoluc-GSK3A in HEK293 cells; format: cell-based; conditions: NanoBRET GSK3α IC50, HEK293 cells, tracer K-8, 2 hours, 37° C
T2 construct: expressed in transfected cells
T2 sequence (P49840 whole entry): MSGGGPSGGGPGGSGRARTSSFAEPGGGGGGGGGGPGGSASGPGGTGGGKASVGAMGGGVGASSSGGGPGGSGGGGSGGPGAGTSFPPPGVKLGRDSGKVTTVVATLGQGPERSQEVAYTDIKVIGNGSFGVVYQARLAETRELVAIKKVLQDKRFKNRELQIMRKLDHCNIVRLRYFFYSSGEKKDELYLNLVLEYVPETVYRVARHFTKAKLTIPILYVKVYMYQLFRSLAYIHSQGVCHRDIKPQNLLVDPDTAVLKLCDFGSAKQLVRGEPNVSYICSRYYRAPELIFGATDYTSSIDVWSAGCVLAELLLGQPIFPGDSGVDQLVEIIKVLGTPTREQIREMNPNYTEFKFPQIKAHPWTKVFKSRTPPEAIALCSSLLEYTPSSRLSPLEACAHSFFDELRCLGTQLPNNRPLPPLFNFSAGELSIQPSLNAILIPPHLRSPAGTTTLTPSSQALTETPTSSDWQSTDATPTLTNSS

human GSK3α = target: T3, human GSK3α (Homo sapiens, UniProt P49840); test: In vitro enzymatic activity assay, GSK3α; format: biochemical; conditions: 1.0 mM ATP, 1.0 μM peptide substrate, 120 min, 25° C, read-out: Enzyme GSK3α (IC50)
T3 construct: Full length human GSK3α or GSK3B expressed as N-terminal GST fusion proteins; GST (N); purchased Carna Biosciences (Japan); host or cells: baculovirus host
T3 sequence (P49840 whole entry, the tested form may be a part): as the sequence (P49840 whole entry) above

Compound	IC50 (GSK3B [1]) [nM]	IC50 (GSK3B [2]) [nM]	IC50 (GSK3A) [nM]	IC50 (human GSK3α) [nM]
CCOc1cc(Cl)c(-n2cnc(N)c(C(=O)Nc3cncc(C(N)COC)c3)c2=O)c(Cl)c1 (single isomer, unassigned) [Example 134, (R)-4-amino-N-(5-(1-amino-2-methoxyethyl)pyridin-3-yl)-1-(2,6-dichloro-4-ethoxyphenyl)-6-oxo-1,6-dihydropyrimidine-5-carboxamide or (S)-4-amino-N-(5-(1-amino-2-methoxyethyl)pyridin-3-yl)-1-(2,6-dichloro-4-ethoxyphenyl)-6-oxo-1,6-dihydropyrimidine-5-carboxamide]	212	204	3.2	3.4
CCOc1cc(Cl)c(-n2cnc(N)c(C(=O)Nc3cncc(C4COCCCN4)c3)c2=O)c(Cl)c1 (single isomer, unassigned) [Example 135, (R)-N-(5-(1,4-oxazepan-3-yl)pyridin-3-yl)-4-amino-1-(2,6-dichloro-4-ethoxyphenyl)-6-oxo-1,6-dihydropyrimidine-5-carboxamide or (S)-N-(5-(1,4-oxazepan-3-yl)pyridin-3-yl)-4-amino-1-(2,6-dichloro-4-ethoxyphenyl)-6-oxo-1,6-dihydropyrimidine-5-carboxamide]	184	264	4.5	3.2
CCOc1cc(Cl)c(-n2cnc(N)c(C(=O)Nc3cncc(C(N)CC)c3)c2=O)c(Cl)c1 (single isomer, unassigned) [Example 136, (R)-4-amino-N-(5-(1-aminopropyl)pyridin-3-yl)-1-(2,6-dichloro-4-ethoxyphenyl)-6-oxo-1,6-dihydropyrimidine-5-carboxamide or (S)-4-amino-N-(5-(1-aminopropyl)pyridin-3-yl)-1-(2,6-dichloro-4-ethoxyphenyl)-6-oxo-1,6-dihydropyrimidine-5-carboxamide]	206	118	1.8	2.9
CCOc1cc(Cl)c(-n2cnc(N)c(C(=O)Nc3cncc(C(C)N)c3)c2=O)c(Cl)c1 (single isomer, unassigned) [Example 137, (R)-4-amino-N-(5-(1-aminoethyl)pyridin-3-yl)-1-(2,6-dichloro-4-ethoxyphenyl)-6-oxo-1,6-dihydropyrimidine-5-carboxamide or (S)-4-amino-N-(5-(1-aminoethyl)pyridin-3-yl)-1-(2,6-dichloro-4-ethoxyphenyl)-6-oxo-1,6-dihydropyrimidine-5-carboxamide]	129	87.1	1.7	1.9
CCOc1cc(Cl)c(-n2cnc(N)c(C(=O)Nc3cncc(C(COC)NC)c3)c2=O)c(Cl)c1 (single isomer, unassigned) [Example 141, (R)-4-amino-1-(2,6-dichloro-4-ethoxyphenyl)-N-(5-(2-methoxy-1-(methylamino)ethyl)pyridin-3-yl)-6-oxo-1,6-dihydropyrimidine-5-carboxamide or (S)-4-amino-1-(2,6-dichloro-4-ethoxyphenyl)-N-(5-(2-methoxy-1-(methylamino)ethyl)pyridin-3-yl)-6-oxo-1,6-dihydropyrimidine-5-carboxamide]	232	318	2.9	4.1
CCOc1cc(Cl)c(-n2cnc(N)c(C(=O)Nc3cncc(C(C)N)c3)c2=O)c(Cl)c1 (single isomer, unassigned) [Example 142, (R)-4-amino-N-(5-(1-aminoethyl)pyridin-3-yl)-1-(2,6-dichloro-4-ethoxyphenyl)-6-oxo-1,6-dihydropyrimidine-5-carboxamide or (S)-4-amino-N-(5-(1-aminoethyl)pyridin-3-yl)-1-(2,6-dichloro-4-ethoxyphenyl)-6-oxo-1,6-dihydropyrimidine-5-carboxamide]	421	350	4.7	9.8
Cc1cc(CC(F)F)cc(C)c1-n1cnc(N)c(C(=O)Nc2cncc(C(C)N)c2)c1=O (single isomer, unassigned) [Example 144, (R)-4-amino-N-(5-(1-aminoethyl)pyridin-3-yl)-1-(4-(2,2-difluoroethyl)-2,6-dimethylphenyl)-6-oxo-1,6-dihydropyrimidine-5-carboxamide or (S)-4-amino-N-(5-(1-aminoethyl)pyridin-3-yl)-1-(4-(2,2-difluoroethyl)-2,6-dimethylphenyl)-6-oxo-1,6-dihydropyrimidine-5-carboxamide]	472	375	5	11
CCc1cc(C)c(-n2cnc(N)c(C(=O)Nc3cncc(C4CCCCCN4)c3)c2=O)c(C)c1 (single isomer, unassigned) [Example 148, (R)-4-amino-N-(5-(azepan-2-yl)pyridin-3-yl)-1-(4-ethyl-2,6-dimethylphenyl)-6-oxo-1,6-dihydropyrimidine-5-carboxamide or (S)-4-amino-N-(5-(azepan-2-yl)pyridin-3-yl)-1-(4-ethyl-2,6-dimethylphenyl)-6-oxo-1,6-dihydropyrimidine-5-carboxamide]	317	349	4.3	7.2

The remaining compounds from weak to strong by IC50 (GSK3B [1]), led by results:

IC50 (GSK3B [1]) [nM]	IC50 (GSK3B [2]) [nM]	IC50 (GSK3A) [nM]	IC50 (human GSK3α) [nM]	Compound
1240	616	9.2	24.2	CCOCC(N)c1cncc(NC(=O)c2c(N)ncn(-c3c(Cl)cc(OCC)cc3Cl)c2=O)c1 (single isomer, unassigned) [Example 140, (R)-4-amino-N-(5-(1-amino-2-ethoxyethyl)pyridin-3-yl)-1-(2,6-dichloro-4-ethoxyphenyl)-6-oxo-1,6-dihydropyrimidine-5-carboxamide or (S)-4-amino-N-(5-(1-amino-2-ethoxyethyl)pyridin-3-yl)-1-(2,6-dichloro-4-ethoxyphenyl)-6-oxo-1,6-dihydropyrimidine-5-carboxamide]
560	281	5.1	10.9	CCOc1cc(Cl)c(-n2cnc(N)c(C(=O)Nc3cncc(C(N)C4CC4)c3)c2=O)c(Cl)c1 (single isomer, unassigned) [Example 139, (R)-4-amino-N-(5-(amino(cyclopropyl)methyl)pyridin-3-yl)-1-(2,6-dichloro-4-ethoxyphenyl)-6-oxo-1,6-dihydropyrimidine-5-carboxamide or (S)-4-amino-N-(5-(amino(cyclopropyl)methyl)pyridin-3-yl)-1-(2,6-dichloro-4-ethoxyphenyl)-6-oxo-1,6-dihydropyrimidine-5-carboxamide]
392	354	3.8	8.8	Cc1cc(C)c(-n2cnc(N)c(C(=O)Nc3cncc(C(C)N)c3)c2=O)c(C)c1 (single isomer, unassigned) [Example 147, (R)-4-amino-N-(5-(1-aminoethyl)pyridin-3-yl)-1-mesityl-6-oxo-1,6-dihydropyrimidine-5-carboxamide or (S)-4-amino-N-(5-(1-aminoethyl)pyridin-3-yl)-1-mesityl-6-oxo-1,6-dihydropyrimidine-5-carboxamide]
355	340	3.7	7.7	Cc1cc(C)c(-n2cnc(N)c(C(=O)Nc3cncc(C4CCCCCN4)c3)c2=O)c(C)c1 (single isomer, unassigned) [Example 146, (R)-4-amino-N-(5-(azepan-2-yl)pyridin-3-yl)-1-mesityl-6-oxo-1,6-dihydropyrimidine-5-carboxamide or (S)-4-amino-N-(5-(azepan-2-yl)pyridin-3-yl)-1-mesityl-6-oxo-1,6-dihydropyrimidine-5-carboxamide]
228	181	2	5.5	CCOCc1cc(C)c(-n2cnc(N)c(C(=O)Nc3cncc(C4CCCCCN4)c3)c2=O)c(C)c1 (single isomer, unassigned) [Example 132, (R)-4-amino-N-(5-(azepan-2-yl)pyridin-3-yl)-1-(4-(ethoxymethyl)-2,6-dimethylphenyl)-6-oxo-1,6-dihydropyrimidine-5-carboxamide or (S)-4-amino-N-(5-(azepan-2-yl)pyridin-3-yl)-1-(4-(ethoxymethyl)-2,6-dimethylphenyl)-6-oxo-1,6-dihydropyrimidine-5-carboxamide]
207	280	4.1	4.9	CCOc1cc(Cl)c(-n2cnc(N)c(C(=O)Nc3cncc(C(N)CC(F)F)c3)c2=O)c(Cl)c1 (single isomer, unassigned) [Example 143, (R)-4-amino-N-(5-(1-amino-3,3-difluoropropyl)pyridin-3-yl)-1-(2,6-dichloro-4-ethoxyphenyl)-6-oxo-1,6-dihydropyrimidine-5-carboxamide or (S)-4-amino-N-(5-(1-amino-3,3-difluoropropyl)pyridin-3-yl)-1-(2,6-dichloro-4-ethoxyphenyl)-6-oxo-1,6-dihydropyrimidine-5-carboxamide]
